Source: PubChem BioAssay (NCI)
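Exposure lasted 48 hours, with cells grown in 96-well plates and compounds tested at five concentrations. Definition used: TGI = concentration required for complete inhibition of growth.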

Key:
Test in all cases: DTP human tumour cell line panel, 48 h
HCC-2998 colon = tested on: HCC-2998 colon
HCT-15 colon = tested on: HCT-15 colon
K-562 leukemia = tested on: K-562 leukemia
KM12 colon = tested on: KM12 colon
M14 melanoma = tested on: M14 melanoma
MDA-N = tested on: MDA-N
NCI-H460 lung = tested on: NCI-H460 lung
NCI/ADR-RES ovarian = tested on: NCI/ADR-RES ovarian
SF-539 CNS = tested on: SF-539 CNS
T-47D breast = tested on: T-47D breast

Compound	TGI (HCC-2998 colon) [µM]	TGI (HCT-15 colon) [µM]	TGI (K-562 leukemia) [µM]	TGI (KM12 colon) [µM]	TGI (M14 melanoma) [µM]	TGI (MDA-N) [µM]	TGI (NCI-H460 lung) [µM]	TGI (NCI/ADR-RES ovarian) [µM]	TGI (SF-539 CNS) [µM]	TGI (T-47D breast) [µM]
CSc1ccccc1P(CCP(c1ccccc1SC)c1ccccc1SC)c1ccccc1SC	> 100	> 100	> 100	> 100	> 100	> 100	> 80.1	> 100	> 79.1	> 100
OC(O)(C(F)(F)F)C(F)(F)F	> 100	> 100	> 100	> 100	> 100	> 100	> 100	> 100	> 100	> 100
COC(=O)C1[C@H](C(=O)OC)C1(Br)CBr (some centres not stated)	> 100	> 100	> 100	> 100	> 100	> 100	> 100	> 100	> 100	> 100
Cc1nn(-c2ccccn2)c2c1C(SC#N)=C(C=O)CC2	24.2	34	39	32.7	31.7	38.6	34.9	45.5	36.1	20.3
C[C@@H]1OCC(O)C([C@H]2OC(c3ccccc3)=N[C@H]2CO)O1 (some centres not stated)	> 100	> 100	> 100	> 100	> 100	> 100	> 100	> 100	> 100	> 100
O=c1c(-c2ccc(O)cc2)coc2cc(O)cc(O)c12	> 100	> 100	> 100	> 100	> 100	> 100	> 100	> 100	> 100	> 100
O=C(/C=C/c1ccccc1)CCc1c(O)c2ccccc2oc1=O	> 100	> 100	> 100	> 100	> 100	> 100	> 100	> 100	> 100	> 100
C=CCn1c(=O)c2ccccc2[n+]2c(-c3cccc([N+](=O)[O-])c3)csc12	> 100	–	> 100	> 100	> 100	> 100	> 100	68.2	> 100	72.8
CCC1CCC2c3c([nH]c4ccccc34)C3C(=O)N(c4ccc(OC)cc4)C(=O)C3C2C1 (configuration not stated)	> 100	> 100	60.8	> 100	> 100	> 100	> 100	> 100	> 100	55.8
C/C(=C\CNc1nc(Cl)nc2nc[nH]c12)CO	> 100	–	> 100	> 100	> 100	> 100	> 100	> 100	> 100	> 100
CCCCCCCCC[n+]1cccc(C2C(C(=O)OCC)=C(C)NC(C)=C2C(=O)OCC)c1	21.1	32.7	43.7	4.21	7.32	4.39	19.3	> 100	15.6	20.3
O=C1C(=Cc2ccccc2[N+](=O)[O-])N=C(c2ccccc2)N1n1c(-c2ccccc2)nc2ccccc2c1=O	> 100	> 100	> 100	66.2	> 100	> 100	99.1	62.6	> 100	62.6
C=C1C(=O)O[C@H]2C3C(=C(C)CC[C@@H]12)C(=O)[C@@H]1OC31C (some centres not stated)	29.7	3.16	5.35	20.2	3.19	3.95	25.3	10.7	6.75	3.96
COc1ccc(NC(=S)NNC(=O)c2cc(-c3ccccc3)nc3ccccc23)cc1	24.6	33.7	46.5	> 100	31.9	15.5	35.9	35.5	27.2	59.7
Nc1ccc(-c2nc3ccccc3s2)cc1	> 100	40.4	58.4	47.6	34	35.2	43.1	56.4	45.1	65.5
O=C(NCc1cccnc1)C(=O)NCc1cccnc1	> 100	> 100	> 100	> 100	> 100	> 100	> 100	> 100	> 100	> 100

Compound	TGI (HCC-2998 colon) [µM]	TGI (HCT-15 colon) [µM]	TGI (K-562 leukemia) [µM]	TGI (KM12 colon) [µM]	TGI (M14 melanoma) [µM]	TGI (MDA-N) [µM]	TGI (NCI-H460 lung) [µM]	TGI (NCI/ADR-RES ovarian) [µM]	TGI (SF-539 CNS) [µM]	TGI (T-47D breast) [µM]
CN(C)c1ccc(/C=C2\C[C@H]3[C@@H]4CCc5cc(O)ccc5[C@H]4CC[C@]3(C)C2=O)cc1	> 100	> 100	> 100	> 100	> 100	> 100	> 100	> 100	62.8	> 100
N#Cc1c(-c2ccc(Cl)cc2)cc(-c2nc3ccccc3[nH]2)nc1N	14.3	36.3	54.9	25.1	16.2	23.7	21.6	48.4	31.7	19.4
COc1ccc(N2C(=O)/C(=C/c3ccc(N(CCC#N)CCC#N)cc3)N=C2c2ccccc2)c(OC)c1	> 100	> 100	87	> 100	> 100	> 100	> 100	> 100	> 100	69.5
Cc1ccc(S(=O)(=O)N2CCN(CCO)CCN(S(=O)(=O)c3ccc(C)cc3)CCN(CCO)CC2)cc1	29.7	37.2	35.3	38.6	31.5	93.6	28.7	38.3	33.4	36.2
C/C(=C\c1ccccc1)C(=O)NCc1ccc(C(=O)NCCc2c[nH]c3ccccc23)cc1	96.3	> 100	> 100	> 100	> 100	> 100	> 100	> 100	> 100	> 100
COC(=O)C[C@H](CCSC)NC(=O)C[C@H](CCSC)NC(=O)C[C@H](CCSC)NC(=O)OC(C)(C)C	> 100	> 100	> 100	> 100	> 100	> 100	> 100	> 100	54.1	> 100
Cc1cccc(C(O)c2cccnc2)c1O (configuration not stated)	> 100	> 100	> 100	> 100	–	> 100	> 100	> 100	> 100	> 100
c1ccc2c(c1)c1c3n2-c2cc(on2)C3CCC1 (configuration not stated)	> 100	> 100	> 100	> 100	> 100	> 100	> 100	> 100	> 100	> 100
COC(=O)C(C(=O)OC)C1CC(=O)c2c(Br)sc(Br)c21 (configuration not stated)	27.4	21.6	53.5	> 100	40.8	> 100	40.4	37.1	42.6	> 100
O=C(NC/C=C/Br)NC1CCNc2ccccc21 (configuration not stated)	59	> 100	> 100	> 100	34.5	> 100	> 100	99.7	45.8	93.9
O=c1oc2ccccc2c(O)c1Cc1cccc(Cc2c(O)c3ccccc3oc2=O)c1	> 100	> 100	> 100	> 100	> 100	> 100	> 100	> 100	> 100	> 100
COC1=CC(=O)c2c(cc(COP(=O)(N(C)CCBr)N(C)CCBr)n2C)C1=O	1.77	2.28	> 100	24.1	2.56	2.77	9.44	16.7	0.339	33
COC(=O)c1c(C#C[Si](C)(C)C)c(C#C[Si](C)(C)C)c(C#C[Si](C)(C)C)c(C#C[Si](C)(C)C)c1C(=O)OC	> 100	> 100	> 100	> 100	> 100	> 100	> 100	> 100	> 100	> 100
CCCC(=O)OC1CC(n2cc(F)c(=O)[nH]c2=O)OC1CO (configuration not stated)	> 10	> 10	> 10	> 10	> 5.96	> 10	> 10	> 10	0.385	> 10
COc1cc2c(cc1O)CC[C@@H]1C2CC[C@@]2(C)C1CC[C@@H]2O (some centres not stated)	34.3	49	26.1	61.8	> 100	0.574	> 72.7	2.73	4.2	> 100
Cc1cccc2c1C(=O)[C@@](C)([C@]1(C)Nc3cccc(C)c3C1=O)N2	> 100	> 100	> 100	> 100	> 100	> 100	> 100	> 100	> 100	> 100
